Measurements reported in patent publication US12636810B2, “Wood preservative composition comprising 4,5-dichloro-2-octylisothiazol-3(2H)-one, a method treating a wood substrate therewith, and a wood product produced therefrom” (KOPPERS PERFORMANCE CHEMICALS, INC., priority 2021, dated 2026).

Assay: Organic solvent solvency with DCOI and retaining additive testing
Assay type: physicochemical
Parameters: key: Low: low solvency; Medium: medium solvency; High: high solvency
Details: 23.5% DCOI and 25.0% Chempol 801-2164 in the solvent; 40 degrees Fahrenheit; separation, precipitation, turbidity
Protocol: For testing the solvency (i.e., ability to dissolve) of the organic solvent for DCOI and the retaining additive, 4.7 gram of DCOI and 5.0 g of retaining additive were dissolved in 10.3 gram of organic solvent to make a 23.5% of DCOI and 25.0% resin solution in a clear 20 ml glass vial. Thereafter, the vial is stored at a selected temperature (i.e., ambient temperature, 40 degrees Fahrenheit, or 120 degree Fahrenheit or whenever a crosslinking may occur). The vial is monitored for up to 7 days for phase separation, precipitation, and turbidity, which may indicate incompatibility between the organic solvent and the retaining additive and/or DCOI. The as prepared solution is maintained at room temperature and 40 degrees Fahrenheit for up to 7 days or whenever a phase separation, precipitation or solution turbidity event happens to disqualify the solution.
The solvents were tested at 40 degrees Fahrenheit and rated low solvency, medium solvency, or high solvency based on the amount, if any, of separation, precipitation, and turbidity observed in each solution.

- DCOI/Resin Solvency: High
Structure (SMILES): OCc1ccccc1 [Benzyl Alcohol]
